Structures are written as SMILES.

For the experiment, the target named is T1, ΔF508-CFTR (Homo sapiens, UniProt P13569, DEL508-508).
T1 construct: expressed in transfected cells; host or cells: HeLa cells, stably transfected (pTracer-based plasmid pTCF-F508del), provided by Pascale Fanen (Inserm U.468)
T1 sequence (P13569 with tags, fused parts or gaps DEL508-508): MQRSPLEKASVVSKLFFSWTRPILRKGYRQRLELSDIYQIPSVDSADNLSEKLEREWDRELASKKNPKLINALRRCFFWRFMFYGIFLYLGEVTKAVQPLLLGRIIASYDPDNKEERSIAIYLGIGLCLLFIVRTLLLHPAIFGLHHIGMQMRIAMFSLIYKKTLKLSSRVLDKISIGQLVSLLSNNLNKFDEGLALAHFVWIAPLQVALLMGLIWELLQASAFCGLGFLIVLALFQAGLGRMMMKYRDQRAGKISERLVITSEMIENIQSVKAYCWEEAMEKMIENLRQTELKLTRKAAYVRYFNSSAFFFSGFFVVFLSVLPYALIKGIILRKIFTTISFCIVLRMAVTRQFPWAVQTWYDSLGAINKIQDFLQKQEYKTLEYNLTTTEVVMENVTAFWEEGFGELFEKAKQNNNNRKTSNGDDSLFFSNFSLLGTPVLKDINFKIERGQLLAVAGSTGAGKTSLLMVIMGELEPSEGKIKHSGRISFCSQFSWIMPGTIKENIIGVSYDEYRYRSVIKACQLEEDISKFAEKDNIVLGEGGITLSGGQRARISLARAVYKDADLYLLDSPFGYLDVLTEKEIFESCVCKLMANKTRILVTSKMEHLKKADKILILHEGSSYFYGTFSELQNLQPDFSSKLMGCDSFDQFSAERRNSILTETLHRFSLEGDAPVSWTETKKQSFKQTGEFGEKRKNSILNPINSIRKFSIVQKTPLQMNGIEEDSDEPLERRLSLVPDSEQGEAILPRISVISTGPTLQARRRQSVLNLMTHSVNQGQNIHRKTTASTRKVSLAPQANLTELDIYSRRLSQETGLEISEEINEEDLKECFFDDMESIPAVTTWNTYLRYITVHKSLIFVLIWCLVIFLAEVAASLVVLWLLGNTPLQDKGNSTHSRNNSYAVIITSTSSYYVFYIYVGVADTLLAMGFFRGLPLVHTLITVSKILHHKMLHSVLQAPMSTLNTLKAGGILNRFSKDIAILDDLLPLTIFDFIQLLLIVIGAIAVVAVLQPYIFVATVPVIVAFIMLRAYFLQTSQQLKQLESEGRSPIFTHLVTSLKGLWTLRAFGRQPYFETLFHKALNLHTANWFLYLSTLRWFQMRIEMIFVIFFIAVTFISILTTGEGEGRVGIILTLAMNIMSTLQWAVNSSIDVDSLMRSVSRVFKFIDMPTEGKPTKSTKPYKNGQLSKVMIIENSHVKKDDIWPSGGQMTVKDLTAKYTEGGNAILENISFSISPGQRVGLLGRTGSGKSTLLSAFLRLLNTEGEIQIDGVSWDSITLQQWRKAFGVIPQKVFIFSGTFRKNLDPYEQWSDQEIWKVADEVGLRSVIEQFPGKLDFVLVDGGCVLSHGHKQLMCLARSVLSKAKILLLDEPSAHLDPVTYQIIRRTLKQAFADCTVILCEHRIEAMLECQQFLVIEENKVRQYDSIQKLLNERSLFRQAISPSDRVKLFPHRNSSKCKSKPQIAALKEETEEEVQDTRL
Kind of experiment: CFTR immunolocalization by confocal immunofluorescence in HeLa cells. The class given is cell-based. Particulars: 1 μM, 24 hours. The method, then: (c) Effects of the different compounds used at 1 μM on CFTR localization. Confocal imaging showing the plasma membrane localisation of WT-CFTR and intracellular localisation of ΔF508-CFTR. The effect of drugs is illustrated in panels c to f. Bars: […]. Arrows indicate staining of CFTR at the plasma membrane.
HeLa cells grown on glass coverslips were treated as above and as described in Lipecka, J. et al., Distribution of ClC-2 chloride channel in rat and human epithelial tissues. American journal of physiology. Cell physiology 282, C805-16(2002). Cells were fixed with 4% formaldehyde and permeabilized with 0.1% Triton in PBS. Cells were blocked with 1% bovine serum albumine in PBS/Triton and incubated at 4° C. overnight with the primary antibodies, 24-1 (1:300). After washing and blocking with 5% normal goat serum, cells were incubated with the secondary antibodies. Glass coverslips were mounted using the Vectashield mounting medium (Vector laboratories) and examined by confocal laser microscopy (Zeiss, LSM 510).
As for `O=C(O)c1ccc(C(=O)O)c(C(=O)Nc2ccc3c(c2)Cc2ccccc2-3)c1` [compound 73100, 2-(9H-fluoren-2-ylcarbamoyl)terephthalic acid], the “CFTR staining / plasma membrane localisation” value is on record as “discrete punctuate staining at the plasma membrane was observed in a small fraction of cells”. With `O=c1nc(SCc2cccc([N+](=O)[O-])c2)[nH]c2nc[nH]c12` [compound 118208, 2-[(3-nitrophenyl)methylsulfanyl]-3,7-dihydropurin-6-one], the “CFTR staining / plasma membrane localisation” value is given as “discrete punctuate staining at the plasma membrane was observed in a small fraction of cells”. Turning to `O=P(O)(CCP(=O)(O)c1ccccc1)c1ccccc1` [compound 407882, 2-[hydroxy(phenyl)phosphoryl]ethyl-phenylphosphinic acid], the “CFTR staining / plasma membrane localisation” value is “clear CFTR staining at or near the plasma membrane”.

The values are drawn from patent US10463639B2, “Compounds as modulators of a mutant CFTR protein and their use for treating diseases associated with CFTR protein malfunction” (INSTYTUT BIOCHEMII I BIOFIZYKI PAN, priority 2010, dated 2019).
